Measurements: patent US9487510B2, “Substituted heterocyclic acetamides as kappa opioid receptor (KOR) agonists” (Dr. Reddy's Laboratories Ltd., priority 2012, dated 2016)

Target: human KOR receptor (Homo sapiens, UniProt P41145)
Experiment: IP-One HTRF assay, potency of KOR agonists, dose-response in transiently transfected COS-7 cells
Format: cell-based

human KOR receptor, sequence (P41145 whole entry): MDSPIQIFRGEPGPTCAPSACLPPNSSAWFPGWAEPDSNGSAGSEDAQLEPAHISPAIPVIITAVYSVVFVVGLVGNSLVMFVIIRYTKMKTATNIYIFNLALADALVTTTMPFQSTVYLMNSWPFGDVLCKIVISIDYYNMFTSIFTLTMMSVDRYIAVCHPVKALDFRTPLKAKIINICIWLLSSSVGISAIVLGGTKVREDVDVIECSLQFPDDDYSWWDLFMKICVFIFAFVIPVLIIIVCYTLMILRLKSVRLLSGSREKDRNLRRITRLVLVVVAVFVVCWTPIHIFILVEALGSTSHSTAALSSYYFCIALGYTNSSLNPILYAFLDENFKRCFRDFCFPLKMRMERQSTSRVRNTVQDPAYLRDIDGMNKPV

Structure (SMILES)	EC50 [nM]
CN(C(=O)Cc1ccc2oc(=O)[nH]c2c1)[C@H](CN1CC[C@H](O)C1)c1cccc(C(=O)O)c1 [Example 176, 3-((S)-2-((S)-3-hydroxypyrrolidin-1-yl)-1-(N-methyl-2-(2-oxo-2,3-dihydrobenzo[d]oxazol-5-yl)acetamido)ethyl)benzoic acid]	≤ 50
CN(C(=O)Cc1ccc2c(c1)NC(=O)C2)[C@H](CN1CC[C@H](O)C1)c1cccc(-c2cscn2)c1 [Example 217, N-((S)-2-((S)-3-hydroxypyrrolidin-1-yl)-1-(3-(thiazol-4-yl)phenyl)ethyl)-N-methyl-2-(2-oxoindolin-6-yl)acetamide]	≤ 50
C#Cc1cccc([C@@H](CN2CC[C@H](O)C2)N(C)C(=O)Cc2ccc3c(c2)NC(=O)CS3(=O)=O)c1 [Example 201, 2-(1,1-dioxido-3-oxo-3,4-dihydro-2H-benzo[b][1,4]thiazin-6-yl)-N-((S)-1-(3-ethynylphenyl)-2-((S)-3-hydroxypyrrolidin-1-yl)ethyl)-N-methylacetamide]	≤ 50
O=C1CS(=O)(=O)c2ccc(CC(=O)N[C@H](CN3CCCC3)c3ccccc3)cc2N1 [Example 121, (S)-2-(1,1-dioxido-3-oxo-3,4-dihydro-2H-benzo[b][1,4]thiazin-6-yl)-N-(1-phenyl-2-(pyrrolidin-1-yl)ethyl)acetamide]	≤ 50
CC(C)CN(C(=O)Cc1ccc2c(c1)NC(=O)CS2(=O)=O)[C@H](CN1CCC(O)C1)c1cccc(OC(F)(F)F)c1 (stereo in doubt) [Example 140, 2-(1,1-dioxido-3-oxo-3,4-dihydro-2H-benzo[b][1,4]thiazin-6-yl)-N-((S)-2-((S)-3-hydroxypyrrolidin-1-yl)-1-(3-(trifluoromethoxy)phenyl)ethyl)-N-isobutylacetamide]	≤ 50
CN(C(=O)Cc1ccc2c(c1)NC(=O)C2)[C@H](CN1CC[C@H](O)C1)c1cccc(-c2cncn2C)c1 [Example 222, N-((S)-2-((S)-3-hydroxypyrrolidin-1-yl)-1-(3-(1-methyl-1H-imidazol-5-yl)phenyl)ethyl)-N-methyl-2-(2-oxoindolin-6-yl)acetamide]	≤ 50
O=C(Cc1ccc2sc(=S)[nH]c2c1)N[C@H](CN1CC[C@H](O)C1)c1ccccc1 [Example 118, N-((S)-2-((S)-3-hydroxypyrrolidin-1-yl)-1-phenylethyl)-2-(2-thioxo-2,3-dihydrobenzo[d]thiazol-5-yl)acetamide]	≤ 50
COc1cccc([C@@H](CN2CC[C@H](O)C2)N(C)C(=O)Cc2ccc3c(c2)NC(=O)CS3(=O)=O)c1 [Example 126, 2-(1,1-dioxido-3-oxo-3,4-dihydro-2H-benzo[b][1,4]thiazin-6-yl)-N-((S)-2-((S)-3-hydroxypyrrolidin-1-yl)-1-(3-methoxyphenyl)ethyl)-N-methylacetamide]	≤ 50
CN(C(=O)Cc1ccc2oc(=O)n(Cc3cccc(C#N)c3)c2c1)[C@H](CN1CC[C@H](O)C1)c1ccccc1 [Example 66, 2-(3-(3-cyanobenzyl)-2-oxo-2,3-dihydrobenzo[d]oxazol-5-yl)-N-((S)-2-((S)-3-hydroxypyrrolidin-1-yl)-1-phenylethyl)-N-methylacetamide]	≤ 50
CN(C(=O)Cc1ccc2c(c1)NC(=O)CS2)C(CN1CC[C@H](O)C1)C1CCOCC1 (stereo partly drawn) [Example 130, N-(2-((S)-3-hydroxypyrrolidin-1-yl)-1-(tetrahydro-2H-pyran-4-yl)ethyl)-N-methyl-2(3-oxo-3,4-dihydro-2H-benzo[b][1,4]thiazin-6-yl)acetamide]	≤ 50
CN(C(=O)Cc1ccc2c(c1)NC(=O)CS2(=O)=O)[C@H](CN1CC[C@H](O)C1)c1cccc(OC(F)(F)F)c1 [Example 5, 2-(1,1-dioxido-3-oxo-3,4-dihydro-2H-benzo [b][1,4]thiazin-6-yl)-N-((S)-2-((S)-3-hydroxypyrrolidin-1-yl)-1-(3-(trifluoromethoxy)phenyl)ethyl)-N-methylacetamide]	≤ 50
CN(C(=O)Cc1ccc2c(c1)NC(=O)CS2)[C@H](CN1CC[C@H](O)C1)c1cccc(C#N)c1 [Example 152, N-((S)-1-(3-cyanophenyl)-2-((S)-3-hydroxypyrrolidin-1-yl)ethyl)-N-methyl-2-(3-oxo-3,4-dihydro-2H-benzo[b][1,4]thiazin-6-yl)acetamide]	≤ 50
CN(C(=O)Cc1ccc2c(c1)NC(=O)C2)[C@H](CN1CC[C@H](O)C1)c1cc(F)cc(C#N)c1 [Example 197, N-((S)-1-(3-cyano-5-fluorophenyl)-2-((S)-3-hydroxypyrrolidin-1-yl)ethyl)-N-methyl-2-(2-oxoindolin-6-yl)acetamide]	51 to 100
Cc1noc(-c2cccc([C@@H](CN3CC[C@H](O)C3)N(C)C(=O)Cc3ccc4c(c3)NC(=O)C4)c2)n1 [Example 227, N-((S)-2-((S)-3-hydroxypyrrolidin-1-yl)-1-(3-(3-methyl-1,2,4-oxadiazol-5-yl)phenyl)ethyl)-N-methyl-2-(2-oxoindolin-6-yl)acetamide]	≤ 50
CN(C)C(=O)c1cccc([C@@H](CN2CC[C@H](O)C2)N(C)C(=O)Cc2ccc3c(c2)NC(=O)C3)c1 [Example 207, 3-((S)-2-((S)-3-hydroxypyrrolidin-1-yl)-1-(N-methyl-2-(2-oxoindolin-6-yl)acetamido)ethyl)-N,N-dimethylbenzamide]	≤ 50
CCC#Cc1cccc([C@@H](CN2CC[C@H](O)C2)N(C)C(=O)Cc2ccc3c(c2)NS(=O)(=O)C3)c1 [Example 37, N-((S)-1-(3-(but-1-yn-1-yl)phenyl)-2-((S)-3-hydroxypyrrolidin-1-yl)ethyl)-2-(2,2-dioxido-1,3-dihydrobenzo[c]isothiazol-6-yl)-N-methylacetamide]	≤ 50
CN(C(=O)Cc1ccc2ncc(=O)[nH]c2c1)[C@H](CN1CC[C@H](O)C1)c1cc(F)cc(C#N)c1 [Example 200, N-((S)-1-(3-cyano-5-fluorophenyl)-2-((S)-3-hydroxypyrrolidin-1-yl)ethyl)-N-methyl-2-(3-oxo-3,4-dihydroquinoxalin-6-yl)acetamide]	≤ 50
Cc1nc(-c2cccc([C@@H](CN3CC[C@H](O)C3)N(C)C(=O)Cc3ccc4c(c3)NS(=O)(=O)C4)c2)no1 [Example 181, 2-(2,2-dioxido-1,3-dihydrobenzo[c]isothiazol-6-yl)-N-((S)-2-((S)-3-hydroxypyrrolidin-1-yl)-1-(3-(5-methyl-1,2,4-oxadiazol-3-yl)phenyl)ethyl)-N-methylacetamide]	≤ 50
CN(C(=O)Cc1ccc2c(c1)NC(=O)C2)[C@H](CN1CC[C@H](O)C1)c1cccc(OCC(=O)NS(C)(=O)=O)c1 [Example 27, N-((S)-2-((S)-3-hydroxypyrrolidin-1-yl)-1-(3-(2-(methylsulfonamido)-2-oxoethoxy)phenyl)ethyl)-N-methyl-2-(2-oxoindolin-6-yl)acetamide]	51 to 100
CN(C(=O)Cc1ccc2ncc(=O)[nH]c2c1)[C@H](CN1CC[C@H](O)C1)c1cccc(OCC(=O)O)c1 [Example 171, 2-(3-((S)-2-((S)-3-hydroxypyrrolidin-1-yl)-1-(N-methyl-2-(3-oxo-3,4-dihydroquinoxalin-6-yl)acetamido)ethyl)phenoxy)acetic acid]	≤ 50
Cc1cccc([C@@H](CN2CC[C@H](O)C2)N(C)C(=O)Cc2ccc3c(c2)NC(=O)CS3(=O)=O)c1 [Example 145, 2-(1,1-dioxido-3-oxo-3,4-dihydro-2H-benzo [b][1,4]thiazin-6-yl)-N-((S)-2-((S)-3-hydroxypyrrolidin-1-yl)-1-(m-tolyl)ethyl)-N-methylacetamide]	≤ 50
